Data as given in PMC10039877 (Scientific Reports, 2023).
Several values for one entry are separate records, joined by “and”; a condition that tells them apart may be missing. Equal values may be shown once. Read-outs that look alike come from different tables or passages of the source.

What was measured:
BChE [1] = target: T1, BChE (Equus caballus, UniProt P81908); experiment: biochemical; format: biochemical; conditions: in vitro, triplicates
BChE [2] = target: T1, BChE; set-up: method as in PMID 33759552; conditions: in vitro; found in previous study; read-out: BChE IC50 of starting compound; cited from earlier work
BChE [3] = target: T1, BChE; set-up: method as in PMID 33759552; conditions: previous study; cited from earlier work
BChE [4] = target: T1, BChE; experiment: Enzyme kinetics study (Lineweaver-Burk plots) of 8c on BChE; format: biochemical
Procedure: The inhibition type was determined by analyzing the Lineweaver–Burk plots.
All common chemicals were purchased from commercial sources and used without further purification. The water used was distilled water. Reaction progress was monitored using analytical thin layer chromatography (TLC, detected by UV light 254 nm) on precoated silica gel HSGF254 plates (Qingdao Haiyang Chemical Plant, China). Column chromatography was performed on silica gel (200 ~ 300 mesh; Qingdao Dingkang Chemical Inc.). […] Proton coupling patterns are described as singlet (s), doublet (d), double doublet (dd), triplet (t), and multiplet (m). ESI–MS date were recorded on a Waters Quattro Premier XE triquadrupole mass spectrometer (Waters Corporation, USA), while ESI-HRMS date were recorded on a Q-TOF Priemier mass spectrometer (Micromass, Manchester, UK). The enzyme kinetic assay was performed on an EnSpire Enzyme Marker (Thermos Fisher, USA).
Kinetic studies were performed in same method as described in BChE inhibition assays. The substrate (BTCI) at five concentrations (from 0.05 to 0.8 mM) was determined for 8c at different […] to reveal its inhibition model, and reciprocal plots of 1/V versus 1/[S]. The kinetic parameters and apparent inhibition constants were calculated by the “Enzyme kinetics” module of Prism.

[5] = read-out: BChE: IC50 (μM) ± SEM
[6] = BTCI substrate 0.05 to 0.8 mM, Lineweaver-Burk

T1 sequence (P81908 whole entry): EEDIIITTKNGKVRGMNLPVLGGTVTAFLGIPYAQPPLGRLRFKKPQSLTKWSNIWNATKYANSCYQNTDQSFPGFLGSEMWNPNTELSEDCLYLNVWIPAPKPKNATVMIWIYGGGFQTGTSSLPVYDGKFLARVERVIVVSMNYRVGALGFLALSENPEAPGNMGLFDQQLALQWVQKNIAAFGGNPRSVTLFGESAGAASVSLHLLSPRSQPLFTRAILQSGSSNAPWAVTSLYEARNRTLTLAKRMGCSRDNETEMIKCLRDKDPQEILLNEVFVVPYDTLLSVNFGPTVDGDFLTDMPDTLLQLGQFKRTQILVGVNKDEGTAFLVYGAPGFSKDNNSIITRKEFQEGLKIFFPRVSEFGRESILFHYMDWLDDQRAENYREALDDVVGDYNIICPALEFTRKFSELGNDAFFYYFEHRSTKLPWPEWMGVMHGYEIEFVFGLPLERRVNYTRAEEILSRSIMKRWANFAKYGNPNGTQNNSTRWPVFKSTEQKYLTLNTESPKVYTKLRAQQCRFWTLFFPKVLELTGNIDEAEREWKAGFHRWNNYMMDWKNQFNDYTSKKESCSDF

Structure (SMILES) | IC50 (BChE [1]; [5]) | further results
Cc1cc(C)c(NC(=O)CNC(=O)C(=O)c2c[nH]c3ccccc23)c(C)c1 [13e, 2-(1H-indol-3-yl)-N-(2-(mesitylamino)-2-oxoethyl)-2-oxoacetamide] | > 50 µM | –
COc1cccc(NC(=O)CN(C)C(C)C(=O)c2c[nH]c3ccccc23)c1 (stereo not drawn) [compound 970180] | – | IC50 (BChE [2]): 4.24 ± 0.16 µM; inhibition type (BChE [3]): mixed-type
COc1ccc(NC(=O)CNC(=O)C(=O)c2c[nH]c3ccccc23)cc1 [13b, 2-(1H-indol-3-yl)-N-(2-((4-methoxyphenyl)amino)-2-oxoethyl)-2-oxoacetamide] | > 50 µM | –
CN(CCOC(=O)Nc1cccc(Cl)c1)C(=O)C(=O)c1c[nH]c2ccccc12 [17d, 2-(2-(1H-indol-3-yl)-N-methyl-2-oxoacetamido)ethyl (3-chlorophenyl)carbamate] | – | IC50 (BChE [1]; BChE: IC50 (μM) ± SEM): > 50 µM
Cc1ccccc1NC(=O)OCCN(C)C(=O)C(=O)c1c[nH]c2ccccc12 [17c, 2-(2-(1H-indol-3-yl)-N-methyl-2-oxoacetamido)ethyl o-tolylcarbamate] | – | IC50 (BChE [1]; BChE: IC50 (μM) ± SEM): > 50 µM
COc1cccc(NC(=O)CNC(=O)C(=O)c2c[nH]c3ccccc23)c1 [13j, 2-(1H-indol-3-yl)-N-(2-((3-methoxyphenyl)amino)-2-oxoethyl)-2-oxoacetamide] | > 50 µM | –
CCc1ccc(NC(=O)OCCN(C)C(=O)C(=O)c2c[nH]c3ccccc23)cc1 [17b, 2-(2-(1H-indol-3-yl)-N-methyl-2-oxoacetamido)ethyl (4-ethylphenyl)carbamate] | – | IC50 (BChE [1]; BChE: IC50 (μM) ± SEM): > 50 µM
COc1ccc(NC(=O)CN(C)C(=O)C(=O)c2c[nH]c3ccccc23)c(C)c1 [8b, 2-(1H-indol-3-yl)-N-(2-((4-methoxy-2-methylphenyl)amino)-2-oxoethyl)-N-methyl-2-oxoacetamide] | > 50 µM | –
Cc1ccc(NC(=O)CNC(=O)C(=O)c2c[nH]c3ccccc23)cc1C [13c, N-(2-((3,4-dimethylphenyl)amino)-2-oxoethyl)-2-(1H-indol-3-yl)-2-oxoacetamide] | > 50 µM | –
COc1ccccc1NC(=O)CNC(=O)C(=O)c1c[nH]c2ccccc12 [13a, 2-(1H-indol-3-yl)-N-(2-((2-methoxyphenyl)amino)-2-oxoethyl)-2-oxoacetamide] | > 50 µM | –
Cc1cc(C)cc(NC(=O)CNC(=O)C(=O)c2c[nH]c3ccccc23)c1 [13f, N-(2-((3,5-dimethylphenyl)amino)-2-oxoethyl)-2-(1H-indol-3-yl)-2-oxoacetamide] | > 50 µM | –
Cc1ccccc1NC(=O)CNC(=O)C(=O)c1c[nH]c2ccccc12 [13g, 2-(1H-indol-3-yl)-2-oxo-N-(2-oxo-2-(o-tolylamino)ethyl)acetamide] | > 50 µM | –
O=C(CNC(=O)C(=O)c1c[nH]c2ccccc12)Nc1ccccc1F [13k, N-(2-((2-fluorophenyl)amino)-2-oxoethyl)-2-(1H-indol-3-yl)-2-oxoacetamide] | > 50 µM | –
CCCCc1ccc(NC(=O)CNC(=O)C(=O)c2c[nH]c3ccccc23)cc1 [13d, N-(2-((4-butylphenyl)amino)-2-oxoethyl)-2-(1H-indol-3-yl)-2-oxoacetamide] | > 50 µM | –
Cc1ccc(NC(=O)CNC(=O)C(=O)c2c[nH]c3ccccc23)cc1Cl [13h, N-(2-((3-chloro-4-methylphenyl)amino)-2-oxoethyl)-2-(1H-indol-3-yl)-2-oxoacetamide] | > 50 µM | –
COc1ccc(NC(=O)CNC(=O)C(=O)c2c[nH]c3ccccc23)c(OC)c1 [13i, N-(2-((2,4-dimethoxyphenyl)amino)-2-oxoethyl)-2-(1H-indol-3-yl)-2-oxoacetamide] | > 50 µM | –
Cc1cc(C)c(NC(=O)CN(C)C(=O)C(=O)c2c[nH]c3ccccc23)c(C)c1 [8c, 2-(1H-indol-3-yl)-N-(2-(mesitylamino)-2-oxoethyl)-N-methyl-2-oxoacetamide] | < 50 µM and 3.95 µM and 3.94 µM | Ki (BChE [4]; [6]): 3.27 µM; Vmax (BChE [4]; [6]): 105.26; inhibition type (BChE [4]; Lineweaver-Burk plot): mixed-type
Cc1cccc(NC(=O)OCCN(C)C(=O)C(=O)c2c[nH]c3ccccc23)c1 [17a, 2-(2-(1H-indol-3-yl)-N-methyl-2-oxoacetamido)ethyl m-tolylcarbamate] | – | IC50 (BChE [1]; BChE: IC50 (μM) ± SEM): > 50 µM
CN(CC(=O)Nc1ccccc1F)C(=O)C(=O)c1c[nH]c2ccccc12 [8a, N-(2-((2-fluorophenyl)amino)-2-oxoethyl)-2-(1H-indol-3-yl)-N-methyl-2-oxoacetamide] | > 50 µM | –
Cc1ccccc1NC(=O)CN(C)C(=O)C(=O)c1c[nH]c2ccccc12 [8d, 2-(1H-indol-3-yl)-N-methyl-2-oxo-N-(2-oxo-2-(o-tolylamino)ethyl)acetamide] | < 50 µM and 19.6 µM | –
